Counter-ions that a name gives are not always drawn.

One assay relates to guinea pig platelets (platelet-rich plasma). Kind of assay: Inhibition against platelet aggregation ability after oral administration in guinea pig. Type of assay: in vivo. Particulars: Cavia porcellus, 1 h, oral administration: 37 μmol/kg, blood collected after an hour, ADP 5 μM, read-out: Aggregation inhibiting rate (%). The procedure:
Experiment for inhibition against platelet aggregation ability after oral administration The specimen drug was dissolved or suspended at a concentration of 18.5 μmol/ml in a physiological saline containing 0.5% of Tween 80. […] A physiological saline containing 0.5% of Tween 80 was similarly administered as a control. […] The blood mixture was centrifuged at 800 r.p.m. for 20 minutes at room temperature to obtain PRP in the upper layer. The lower layer was further centrifuged at 3000 r.p.m. for 15 minutes to obtain PPP in upper layer. […] Platelet aggregation ability was measured according to the method for measuring in vitro platelet aggregation. […] HEMA TRACER 1 (manufactured by NKK Co.). After incubation of PRP at 37° C. for 2 minutes, a physiological saline (30 μl) was added. […] An inhibiting ratio was obtained by comparing the maximum aggregation of the specimen drug group with that of control.
As to `CCOC(=O)CC1COc2ccc(NC(=O)c3ccc(C(=N)N)cc3)cc2C1` (centres unmarked) [Reference Example 3, ethyl 6-[(4-amidinobenzoyl)amino]chroman-3-acetate hydrochloride, reference compound], the inhibition at 37 µmol/kg stood at 39%.

For `C#CCN(C)C(=N)c1ccc(C(=O)Nc2ccc3c(c2)CC(CC(=O)OCC)CC3)cc1` (centres unmarked) [Example 34, ethyl 7-[[4-(N^1-methyl-N^2-propargylamidino)benzoyl]amino]-1,2,3,4-tetrahydronaphthalene-2-acetate hydrochloride], the inhibition at 37 µmol/kg is greater than 90%.

Consider `C#CCNC(=N)c1ccc(C(=O)Nc2ccc3c(c2)CC(CC(=O)OCC)CC3)cc1` (single isomer, unassigned) [Example 45, ethyl (-)-7-[[4-(N^2-propargylamidino)benzoyl]amino]-1,2,3,4-tetrahydronaphthalene-2-acetate hydrochloride], for which the inhibition at 37 µmol/kg is greater than 90%.

Regarding `CCOC(=O)CC1CCc2ccc(NC(=O)c3ccc(C(=N)N4CCOCC4)cc3)cc2C1` (single isomer, unassigned) [Example 47, ethyl (-)-7-[[4-(morpholinoiminomethyl)benzoyl]amino]-1,2,3,4-tetrahydronaphthalene-2-acetate hydrochloride], the inhibition at 37 µmol/kg was greater than 90%.

Take `CCOC(=O)CC1COc2cc(NC(=O)c3ccc(C(=N)N4CCOCC4)cc3)ccc2C1` (centres unmarked) [Example 8, ethyl 7-[[4-(morpholinoiminomethyl)benzoyl]amino]chroman-3-acetate hydrochloride]: the inhibition at 37 µmol/kg was greater than 90%.

In the case of `CCOC(=O)CC1COc2ccc(NC(=O)c3ccc(C(=N)N4CCOCC4)cc3)cc2C1` (single isomer, unassigned) [Example 51, hydrochloride], the inhibition at 37 µmol/kg was greater than 90%.

Consider `C#CCN=C(N)c1ccc(C(=O)Nc2ccc3c(c2)CC(CC(=O)OCC)CC3)cc1` (centres unmarked) [Example 24, ethyl 7-[[4-(N^2-propargylamidino)benzoyl]amino]-1,2,3,4-tetrahydronaphthalene-2-acetate], for which the inhibition at 37 µmol/kg is greater than 90%.

The test system is the same in another assay. In words: In vitro inhibition of platelet aggregation in guinea pig (ADP-induced, PRP). Type of assay: cell-based. The note with it: Cavia porcellus, ADP final concentration 5 μM, read-out: Platelet aggregation inhibitory activity in guinea pig, IC50. The procedure:
In vitro experiment of platelet aggregation inhibition
1. Inhibition of platelet aggregation in Guinea pig
Blood of male guinea pig was collected with an injection syringe which contains 3.8 % sodium citrate as an anticoagulant in a ratio of 1 volume to 9 volumes of the blood. Successively, the collected blood mixture was subjected to centrifugation at 120×g for 15 minutes at room temperature to obtain platelet-rich plasma (PRP). An aliquot of PRP was further subjected to centrifugation at 1,200×g for 15 minutes to obtain platelet-poor plasma (PPP). Numbers of the platelet in PRP were measured with an automatic platelet counter: Sysmex PL-100 (manufactured by Toa Iyodenshi Co.) and PRP was diluted with PPP so as to adjust a platelet concentration to be about 300,000 particles/ μl. Platelet aggregation was measured by the following procedure with a 6 channel aggregometer: HEMA TRACER 1 (manufactured by NKK Co.).
After incubation of 240 μl of PRP at 37° C. for 2 minutes, 30 μl of the solvent of specimen as a control or of the specimen in various concentrations was added to PRP. Further 2 minutes later, 30 μl of adenosine diphosphate (final concentration: 5μM) was added to induce platelet aggregation. An inhibition percentage was obtained by comparing the maximum aggregation of the specimen drug group with that of control. […]
As to `N=C(NCc1ccccn1)c1ccc(C(=O)Nc2ccc3c(c2)CC(CC(=O)O)CC3)cc1` (centres unmarked) [Example 39, 7-[[4-[N^2-(2-picolyl)amidino]benzoyl]amino]-1,2,3,4-tetrahydronaphthalene-2-acetic acid dihydrochloride], the IC50 was found to be 140 nM.

Consider `CCOC(=O)CC1CCc2ccc(NC(=O)c3ccc(C(=N)NCc4ccncc4)cc3)cc2C1` (centres unmarked) [Example 41, ethyl 7-[[4-[N^2-(4-picolyl)amidino]benzoyl]amino]-1,2,3,4-tetrahydronaphthalene-2-acetatedihydrochloride], for which the IC50 is 120 nM.

On to `CCOC(=O)CC1CCc2ccc(NC(=O)c3ccc(C(=N)NCCc4ccncc4)cc3)cc2C1` (centres unmarked) [Example 42, ethyl 7-[[4-[N^2-[2-(4-pyridyl)ethyl]amidino]benzoyl]amino]-1,2,3,4-tetrahydronaphthalene-2-acetate dihydrochloride], for which the IC50 came to 130 nM.

Turning to `CCOC(=O)CC1CCc2ccc(NC(=O)c3ccc(C(=N)N4CCN(c5ccccc5)CC4)cc3)cc2C1` (centres unmarked) [Example 43, dihydrochloride], the IC50 amounted to 140 nM.

`N=C(N)c1ccc(C(=O)Nc2ccc3c(c2)CC(CC(=O)O)CC3)cc1` (centres unmarked) [Ref. Example 2, 7-[(4-amidinobenzoyl)amino]-1,2,3,4-tetrahydronaphthalene-2-acetic acid hydrochloride, reference compound]: the IC50 came to 370 nM.

Regarding `N=C(N)c1ccc(C(=O)Nc2ccc3c(c2)CN(CC(=O)O)CC3)cc1` [Ref. Example 6, 7-[(4-amidinobenzoyl)amino]-1,2,3,4-tetrahydroisoquinoline-2-acetic acid dihydrochloride, reference compound], the IC50 came out at 6600 nM.

Take `CCOC(=O)CC1CCc2ccc(NC(=O)c3ccc(C(=N)N4CCN(c5ccccn5)CC4)cc3)cc2C1` (centres unmarked) [Example 44, trihydrochloride]: the IC50 was 88 nM.

The values are drawn from US5719145A, “Amidine derivatives and platelet aggregation inhibitor containing the same” (Mitsui Toatsu Chemicals, Inc., priority 1996, dated 1998).
